Patent publication US10214491B2, “Activators and therapeutic applications thereof” (THE JOHNS HOPKINS UNIVERSITY, priority 2007, dated 2019)
Entries after “also recorded” stand apart in the source; their conditions may differ.

Columns and labels:
In vivo toxicity tests = details: mice; for acute or chronic toxicities based on histological HE-stainings: i.p., 5, 10 and 20 mg/kg three times a week for three weeks; for toxicity by weight curves, macroscopical pathologies, hematoxylin-eosin staining of tissues: i.p., 5, 10 and 20 mg/kg, 9 doses/3 weeks
Method: Acute and chronic toxicity of the compounds was tested on FVB/N mice. Female mice of 4-6 weeks old were purchased from Harlan and 2 animals were used per compound dose. The mice were injected intraperitoneally with the compounds three times a week for three weeks in 30 microL DMSO. Two animals received vehicle only (=30 μL DMSO). The animals were weighed prior to injections and were monitored for any signs of toxicity, distress or unusual behaviour. The animals were sacrificed three days after receiving the final injection. The liver, kidney, spleen, small intestine and thymus were excised and fixed in 4% paraformaldehyde overnight, and processed into paraffin-blocks. Haematoxylin-eosin staining (HE staining) of the tissues was performed using standard immunohistological techniques.

WS-1 diploid fibroblast = experiment: WST-1 cell viability assay, WS-1; type: cell-based, human; details: three days
Method: (§1) The effect of the compounds selected using the screening assay on the viability of several tumor cell lines as well as diploid cell lines and cell strains was studied. Cells were plated in 96-well plates at a density of 10,000 cells/100 μL/well and were incubated overnight. The following day compound dilutions ranging from 0 to 40 μM were applied to the cells in triplicate and the cells were incubated with the compounds for three days. Cell viability was assayed using the WST-1 cell proliferation reagent (Roche Diagnostics, Germany) The WST-1 reagent was diluted 1:10 in cell culture media and 100 μL of the reagent dilution was applied onto cells followed by 1 hour incubation at +37° C. The specific absorbance was measured at 450 nm and a reference absorbance was measured at 690 nm. […] Analysis for Protein Levels

A375 melanoma (WTp53) = experiment: WST-1 cell viability assay, A375; type: cell-based; details: for IC50: A375 melanoma (WTp53), three days, WST-1
Method: as §1

[1] = test system: Human intestinal endothelial cells; experiment: WST-1 cell viability assay, intestinal endothelial cells; type: cell-based; details: three days
Method: as §1

[2] = test system: normal human primary melanocytes; experiment: WST-1 cell viability assay, melanocytes; type: cell-based; details: Melanocyte, three days
Method: as §1

A375 melanoma cells = experiment: Flow cytometry cell cycle and apoptosis analysis; type: cell-based; details: A375, three days at 10 μM or six days at 5 μM
Method: Cell cycle analysis and cellular apoptosis was assayed with flow cytometry (LSR, Beckton Dickinson). Cells were treated with the compounds and both floating and adherent cells were harvested and fixed in 70% ethanol at −20° C. followed by staining of DNA with propidium iodide. A total of 10,000 counts were collected and data was analysed using ModFit LT 3.1 software. Cells present in sub-G1 population were regarded as apoptotic.

RPMI7951 (MUTp53) = experiment: WST-1 cell viability assay, RPMI-7951; type: cell-based; details: three days
Method: as §1

[3] = test system: p53, Mdm2 and p21 levels in A375 melanoma cells; experiment: Immunoblotting and immunofluorescence for p53, Mdm2 and p21 levels; type: cell-based; details: A375, 24 hours, 5 μM
Method: To study the effect of compounds on endogenous protein levels, A375 melanoma cells were treated with the compounds for 24 hours. Cellular lysates were prepared in lysis buffer containing 0.5% NP-40 with proteinase inhibitors. Protein (20-30 μg) was separated by sodium dodecyl sulphate-polyacrylamide gel electrophoresis (SDS-PAGE) followed by transfer to PVDF membrane (Immobilon™-P, Millipore, Bedford, Mass., USA). Immunoblotting was carried out using DO-1 antibody for p53, 2A10 for Mdm2 and anti-p21 (Becton Dickinson) to detect p21, followed by secondary antibodies conjugated with horseradish peroxidase (p53) or biotin followed by streptavidin-horseradish peroxidase (Mdm2 and p21) after which proteins were detected with enhanced chemiluminescence (ECL, Amersham Life Sciences). Equal protein loading was verified using GAPDH (p9.B.88, Europa Bioproducts Ltd, UK) as a protein loading control.
(§2) Immunofluorescence staining was carried out to determine the correct localisation of p53 and to detect H2AX phosphorylation indicative of genotoxic stress. Cells were treated with the compounds and fixed in paraformaldehyde (3.5 PFA, 25 min RT). The coverslips were permeabilised in 0.5% NP-40 and blocked in 3% bovine serum albumin (BSA). p53 was detected by staining with FL-393 antibody (Santa Cruz, 1:50, 1 h at +37° C.) followed by Alexa-594 conjugated secondary antibody (Molecular Probes, 1:200, 1 h at +37° C.), phospho-H2AX was detected by staining with anti-H2AX (P-Ser-139) antibody (Upstate, 1:200 1 h at +37° C.) followed by Alexa-488 conjugated secondary antibody (Molecular Probes, 1:200, 1 h at +37° C.). Nuclei were stained with Hoechst 33342. Images were captured using the Zeiss Axioplan fluorescence microscope equipped with Zeiss AxioCam HRc CCD-camera and AxioVision 4.5 software using 40×, NA=0,75 objective, Chroma 31000, Chroma41001 and 41004 filters for Hoechst, Alexa488 and Alexa594, respectively.

[4] = test system: p53DsRed reporter in PG3/9 melanoma cells (A375 clone); experiment: p53DsRed reporter activation assay (in vitro p53 activity assay); type: cell-based; details: for EC50: Homo sapiens, A-375, PG3/9 melanoma cells, 24 hours, read-out: effective concentration (EC50), p53DsRed reporter activation; for fraction of p53-reporter activated cells at high concentrations: apparently due to excessive cell death
Method: The ability of the compounds to activate p53 was analyzed using a cell-based assay. To establish the assay, a stable cell transfectant expressing a p53-responsive reporter was generated. A375 melanoma cell line (ATCC CRL-1619) was transfected with a vector containing the p53 consensus element 13x repeat (13XRE) (Kern et al., 1991) cloned to a DsRed Express reporter vector (Clontech) to yield the vector “PG13DsRed”, hereafter termed as “p53DsRed”. […] The cell clone PG3/9 was used in the screen.
The assay was carried out in a 96-well format and all plate handlings were done using liquid handling robots (Thermo CRS, Thermo Electron Corporation; Biomek FX, Beckman Coulter and Hamilton STAR, Hamilton Microlab). Cells were plated at 10,000 cells/100 μL/well onto 96-well ViewPlates (Packard) and incubated overnight at +37° C. and 5% CO2. Small molecule compound chemical libraries were purchased and diluted to dimethylsulfoxide (DMSO) at 10 mM concentration. The compounds were pin-transferred to plain media at approximately 3 μM concentration either as single (one compound/one well) or pools of compounds (two compounds/one well). The growth media was removed and replaced with media with the test compounds followed by incubation of the cells for 24 h at +37° C. and 5% CO2. […] Following the incubation, the cells were washed with phosphate buffered saline and fixed with paraformaldehyde (PFA, 4%, 25 min, RT) and cell nuclei were stained with Hoechst 33342 (Molecular Probes, 4 μg/mL, 2 min, RT).
The fluorescence signals of Hoechst 33342 and DsRed reporter expression in the fixed cells were analyzed using ArrayScan 4.5 high-content screening platform (Cellomics) including an inverted microscope (Zeiss 200M) with 10× objective (Zeiss), Omega XF93 filter (Omega), ORCA-AG CCD camera (Hamamatsu). The algorithm used for image acquisition and analysis was Target Activation Bioapplication (Cellomics), which was set to analyse the total number of cells and the percentage of p53 reporter positive cells termed as “responders”. For each well, four images on both fluorescence channels were acquired corresponding to approximately 1700 cells in mock-treated wells. The mean number of responders was calculated for each well, and compounds causing reporter activation for more than two times the mean number of responders in the mock treated cells in each plate were regarded as hits.
In the secondary screen the hits were collected and tested over 100 nM to 10 μM concentration range. The compound treatment time, cell fixations and stainings as well as fluorescence signal detection was as described above. Compounds providing consistent p53DsRed reporter activation at low μM concentration range were selected for further testing. The effective concentration 50 (EC50) was calculated using the following formula: […]

[5] = test system: phosphorylation of histone H2AX on serine-139 (γH2AX) in A375 melanoma cells; experiment: Phospho-H2AX immunofluorescence (genotoxic stress); type: cell-based; details: A375, 5 μM, 24 hours
Method: as §2

[6] = test system: BC3-luc pleural effusion lymphoma cells; experiment: Orthotopic xenograft model of pleural effusion lymphoma; type: in vivo; details: NOD-SCID mice, 20 mg/kg i.p. seven times
Method: An orthotopic xenograft model of pleural effusion lymphoma was used to assess the anti-tumor activities of compounds 15, 21 and 22. Female NOD-SCID mice (Charles River, France) were injected intraperitoneally with pleural effusion lymphoma cells carrying a stable NF-kappaB regulated luciferase reporter (BC3-luc cells) (Keller et al., 2006). The tumors were allowed to establish for three days after which the mice were imaged and divided into treatment (groups 4-5 mice per group). The compound treatments were initiated on day four. The mice received 2 mg/kg (cmp21) or 20 mg/kg (cmp15 and 22) every other/third day for seven times via i.p. injections, control mice received DMSO only. The mice were imaged prior to each compound injection. Imaging was carried out with Xenogen In Vivo Imaging System (IVIS), D-luciferin (Synchem OHG, Germany) was injected intraperitoneally (100 mg/kg) 10-15 min prior to each imaging. Quantitation was done using Igor Pro Carbon analysis software, bioluminescence was quantitated and plotted as total flux within a given ROI.

[7] = test system: B-cell lymphoma (Kaposi's sarcoma herpes virus-infected pleural effusion lymphoma) cells; details: cited from earlier work

Row | SMILES | acute or chronic toxicities based on histological HE-stainings (In vivo toxicity tests) | toxicity by weight curves, macroscopical pathologies, hematoxylin-eosin staining of tissues (In vivo toxicity tests) | IC50 (WS-1 diploid fibroblast; Homo sapiens, 72 h) | IC50 (A375 melanoma (WTp53); Homo sapiens, A-375, 72 h) | IC50 ([1]; Endothelial cell, 72 h) | IC50 ([2]; Homo sapiens, 72 h) | cell cycle / apoptosis phenotype (A375 melanoma cells) | IC50 (RPMI7951 (MUTp53); Homo sapiens, RPMI-7951, 72 h) | EC50 [4] | other results
1 | CCOC(=O)c1cnc2c(C)cc(C)cc2c1NCCCN(C)C [Compound 9, ethyl 4-(3-dimethylaminopropylamino)-6,8-dimethyl-quinoline-3-carboxylate] | No acute or chronic toxicities were observed | did not show any apparent toxicity | 15.7 µM | 6.1 µM | 19.6 µM | > 40 µM | G1-phase arrest | 17.8 µM | 4.6 µM | Mdm2 induction [3]: most prominent
2 | CCOc1ccc(C2=CC(c3cc(OC)c(OC)c(OC)c3)n3ncnc3N2)cc1 (stereo not drawn) [Compound 20, 5-(4-ethoxyphenyl)-7-(3,4,5-trimethoxyphenyl)-4,7-dihydro-[1,2,4]triazolo[1,5-α]pyrimidine] |  |  |  |  |  |  |  |  | 0.6 µM | 
3 | CN(C)CCCNc1nn2c(=O)c3ccccc3nc2c2ccccc12 [Compound 7] | No acute or chronic toxicities were observed | did not show any apparent toxicity | 18.1 µM | 3 µM | 19.6 µM | 32.4 µM | imminent G2-phase arrest and increased the apoptotic fraction of the cells | 16.8 µM | 6.6 µM | cellular γH2AX response (genotoxic stress) [5]: induces genotoxic stress; also recorded: induced a cellular γH2AX response
4 | Cc1sc2nc3c4ccccc4c(NCCCN(C)C)nn3c(=O)c2c1C [Compound 15] | No acute or chronic toxicities were observed | did not show any apparent toxicity |  |  |  |  |  |  | 5.4 µM | inhibition of tumor cell growth (bioluminescence) [6]: noticeable inhibition of the tumor cell growth; cellular γH2AX response (genotoxic stress) [5]: induces genotoxic stress; also recorded: induced a cellular γH2AX response
5 | COc1cccc2c(N)c3c(cnn3C)nc12 [Compound 1, 5-methoxy-1-methylH-pyrazolo[4,3-b]quinolin-9-amine] |  |  | 10.4 µM | 4.3 µM | 13.1 µM | 30.4 µM | G2-phase arrest and apoptosis | 14.7 µM | 3.3 µM | fold difference IC50 (A375)/ IC50 (WS-1) (A375 melanoma (WTp53); A375 melanoma versus WS-1 normal cells): 2.4 fold; Mdm2 induction [3]: most prominent; fraction of p53-reporter activated cells at high concentrations [4]: decrease in the fraction of p53-reporter activated cells
6 | Cc1cc(C)c2c(N)c3cccc(C)c3nc2n1 [Compound 23, 2,4,9-trimethylbenzo[b]-1,8-naphthyridin-5-amine] |  |  |  |  |  |  |  |  | 2.1 µM | fraction of p53-reporter activated cells at high concentrations [4]: decrease in the fraction of p53-reporter activated cells
7 | COc1ccc(C2=N[C@@H](c3ccc(Cl)cc3)[C@@H](c3ccc(Cl)cc3)N2C(=O)N2CCNC(=O)C2)c(OC(C)C)c1 [Nutlin, nutlin-3a, reference compound] |  |  |  |  |  |  |  |  |  | IC50 (WS-1 diploid fibroblast): 20.6 µM; IC50 (A375 melanoma (WTp53)): 7.2 µM; IC50 [1]: 10.7 µM; IC50 [2]: > 40 µM; IC50 (RPMI7951 (MUTp53)): > 40 µM; B-cell lymphoma cell killing ([7]; in vitro and in vivo mouse models): highly effective agent inducing B-cell lymphoma; adverse side-effects ([7]; mouse): does not cause any adverse side-effects
